Source: patent US10287267B2, “Isoquinolin-3-yl carboxamides and preparation and use thereof” (Samumed, LLC, priority 2016, dated 2019)
Where two headings read alike, the source gives them in different places.

What was measured:
[1] = system: Wnt pathway (Sp5-Luc reporter, TCF/LEF binding sites) in SW480 colon carcinoma cells; experiment: Screening assay for Wnt activity: Sp5-Luc reporter gene assay; assay type: cell-based, human; settings: Sp5-Luc reporter, SW480 cells, 36 to 48 hours;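 note: firefly luciferase luminescence read in stably transduced SW480 cells carrying the Sp5 promoter reporter with eight TCF/LEF sites, compounds given in 0.1% DMSO final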
Description: The screening assay for Wnt activity is described as follows.
Following incubation, 15 μl of BriteLite Plus luminescence reagent (Perkin Elmer) was added to each well of the 384-well assay plates. The plates were placed on an orbital shaker for 2 min and then luminescence was quantified using the Envision (Perkin Elmer) plate reader.

[2] = target: recombinant DYRK1A kinase (Homo sapiens (Human), UniProt Q13627); experiment: DYRK1A kinase assay (Ser/Thr 18 peptide Z-lyte FRET); assay type: biochemical; settings: 30 μM ATP, 1 h room temperature;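 note: Read-out is the coumarin to fluorescein emission ratio, referenced to unphosphorylated (0%) and phosphorylated (100%) Ser/Thr 18 peptide controls, values from dose-response curves by non-linear regression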
recombinant GSK3β kinase = recombinant GSK3β kinase (Homo sapiens (Human), UniProt P49841); experiment: GSK3β kinase assay (Ser/Thr 09 peptide Z-lyte FRET); assay type: biochemical; settings: 46 μM ATP, 1 h room temperature;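 note: kinase activity read as coumarin to fluorescein emission ratio, 11-point threefold dilutions from 10 µM to 0.0003 µM in duplicate, unphosphorylated and phosphorylated peptide as 0% and 100% controls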
recombinant GSK3β kinase, sequence (P49841 whole entry): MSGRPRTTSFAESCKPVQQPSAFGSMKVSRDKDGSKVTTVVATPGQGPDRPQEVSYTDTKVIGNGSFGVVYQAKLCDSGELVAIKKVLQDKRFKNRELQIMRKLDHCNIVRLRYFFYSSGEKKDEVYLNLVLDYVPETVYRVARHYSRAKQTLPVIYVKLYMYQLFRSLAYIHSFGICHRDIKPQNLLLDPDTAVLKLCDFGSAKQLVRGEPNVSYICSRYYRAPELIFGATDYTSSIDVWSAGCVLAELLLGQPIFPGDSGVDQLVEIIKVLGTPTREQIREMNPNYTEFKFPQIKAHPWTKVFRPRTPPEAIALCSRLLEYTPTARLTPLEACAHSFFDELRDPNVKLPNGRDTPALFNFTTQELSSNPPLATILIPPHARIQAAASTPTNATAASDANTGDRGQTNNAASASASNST

[3] = system: Tau phosphorylation at Ser396 (pSer396); experiment: Tau phosphorylation assay (pSer396 ELISA / western blot) in SH-SY5Y cells; assay type: cell-based, human; settings: read-out: pSer396 Tau EC50;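 note: EC50 for reduction of Tau pSer396 in lysed cells, measured by colorimetric ELISA or chemiluminescent western blot, both using the same pSer396 antibody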
[4] = system: SW480 colon carcinoma cells; experiment: Cell viability assay (CellTiter-Glo); assay type: cell-based, human; settings: SW480 cells, CellTiter-Glo, four days incubation
IL-6 [5] = experiment: IL-6 inhibition in LPS-stimulated human peripheral blood mononuclear cells (HTRF); assay type: cell-based; settings: Table 9, huPBMCs, LPS 50 ng/mL, 22 hours, dose-response starting from 10 μM;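 note: IL-6 detected by HTRF with an XL665- and Cryptate-labelled anti-IL-6 antibody pair, samples run in duplicate, EC50 obtained from a four-parameter Levenberg-Marquardt curve fit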
Description: After 22 hour incubation, a mixture of anti-IL6 XL665 and anti-IL-6 Cryptate diluted in reconstitution buffer (Catalog #62IL6PEC, Cisbio Inc., Bedford, Mass.) was added to each well. […] All samples were processed in duplicate. […] EC50 was determined using software generated by Dotmatics Limited (Windhill Bishops Stortford Herts, UK) using the Levenberg-Marquardt 4 parameter fitting procedure with finite different gradients.

IL-6 [6] = experiment: Secreted cytokines in lipopolysaccharide-stimulated BV-2 mouse microglial cells: IL-6; assay type: cell-based; settings: BV-2 cells, compounds overnight, LPS 250 ng/mL 5 h
Description: (§1) Representative compounds were screened using the cell-based assay procedure for secreted cytokines in a Lipopolysaccharide-stimulated mouse glial cell line described below.
(§2) BV-2 cells (mouse microglial cells) were cultured in 1:1 DMEM medium supplemented with 10% FBS, and 1% penicillin/streptomycin.
(§3) BV-2 cells are plated at 35,000 cells/well in a volume of 100 ul for at least 4 hours before compounds are added. DMSO-resuspended compounds were first dispensed in a 96 well plate and serial diluted from 10 μM to 4.6 nM final concentration in medium. Compounds were added to cells overnight. Two hundred fifty ng per milliliter of lipopolysaccharide (Escherichia coli O55:B5, SIGMA) was added for 5 h. Supernatant is removed and saved for further cytokine detection. The original plates with seeded cells were tested for cytotoxicity by measure of adenosine triphosphate (ATP) release by adding CellTiter-Glo® diluted 1:4 in distilled water (G7573, Promega) and transferring lysed cells to a completely black 96-well plate to be read with the Cytation3. Supernatant was then diluted 1:2 with a diluent from V-PLEX cytokine Kit and directly tested for the secreted cytokines TNFα, IL-6 and KC-GRO using electrochemiluminescence (Meso Scale Discovery). The standard curve for each cytokine was used to convert the electrochemiluminescent signal into pg of protein per mL.

[7] = system: secreted β-amyloid 40 (Aβ40) peptide; experiment: Secreted β-amyloid 40 (Aβ40) peptide in APP overexpressing SH-SY5Y-APP cells; assay type: cell-based; settings: Homo sapiens, overnight (16-18 hours)
Description: Representative compounds were screened using the cell-based assay procedure for secreted β-amyloid 40 (Aβ40) peptide in an APP overexpressing cell line described below.
SH-SY5Y cells were infected with lentivirus to overexpress amyloid (A4) beta precursor protein (APP), hereafter referred to as the SH-SY5Y-APP cells.
SH-SY5Y cells were seeded onto 6-well plates at
The cell assay procedure start 18 h prior to treatment, as SH-SY5Y-APP cells were seeded onto 96-well plates at
At this time, designated wells were seeded with SH-SY5Y cells that were seeded and treated with puromycin at
Cells were exposed overnight (16-18 hours) in a 37° C. incubator before supernatant was harvested. […] The original plates with seeded cells were tested for cytotoxicity by measure of adenosine triphosphate (ATP) release by adding CellTiter-Glo® diluted 1:4 in distilled water (G7573, Promega) and transferring lysed cells to a completely black 96-well plate to be read with the Cytation3. Plates containing supernatant were spun down at 1200 g for 10 minutes to remove any cellular debris. Supernatant was then diluted 1:2 with a diluent from V-PLEX Aβ40 Peptide (6E10) Kit and directly tested for secreted Aβ40 peptide (K150SKE, Meso Scale Discovery).

[8] = system: α-smooth muscle actin (αSMA) positive LL29 cells; experiment: Inhibition of fibrotic process: αSMA in TGF-β1 treated primary human fibroblasts from IPF patients; assay type: cell-based; settings: Homo sapiens, Fibroblast, 96 h; Table 8; LL29 fibroblasts from IPF patients, TGF-β1 20 ng/mL, 4 days; dose-response 10 μM to 0.94 nM;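 note: controls were TGF-β1 stimulated wells with DMSO vehicle (positive) and cells given DMSO alone (negative), cultured in F12 medium with 1% fetal bovine serum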
TNFα = experiment: Secreted cytokines in lipopolysaccharide-stimulated BV-2 mouse microglial cells: TNFα; assay type: cell-based; settings: BV-2 cells, compounds overnight, LPS 250 ng/mL 5 h
Description: as §1, §2, §3

[9] = Homo sapiens, SH-SY5Y cells, overnight (16-18 h) exposure

1-(2-Hydroxy-2-methylpropyl)-N-(6-(1-methyl-1H-1,2,3-triazol-4-yl) isoquinolin-3-yl)piperidine-4-carboxamide [Compound 1070]
EC50 [1]: 738 nM
EC50 [2]: 7.6 nM
EC50 (recombinant GSK3β kinase): 16 nM
EC50 ([3]; SH-SY5Y cells, overnight (16-18 h) exposure): 91 nM
EC50 [4]: 8390 nM
EC50 (IL-6 [5]): 6470 nM
EC50 (IL-6 [6]): 14 nM

Cn1cc(-c2ccc3cnc(NC(=O)C4CCNCC4)cc3c2)cn1 [Compound 72, N-(6-(1-methyl-1H-pyrazol-4-yl)isoquinolin-3-yl)piperidine-4-carboxamide]
EC50 ([1]; Homo sapiens): 920 nM
EC50 [2]: 2.5 nM
EC50 (recombinant GSK3β kinase): 64 nM
EC50 [3, 9]: 757 nM
IC50 [7]: 2100 nM
EC50 ([4]; Homo sapiens, 96 h): 911 nM
EC50 [8]: 96 nM
EC50 (IL-6 [5]; Homo sapiens, PBMC): 1130 nM

CN1CCC(C(=O)Nc2cc3cc(-c4cnn(C)c4)ccc3cn2)CC1 [Compound 73, 1-Methyl-N-(6-(1-methyl-1H-pyrazol-4-yl)isoquinolin-3-yl)piperidine-4-carboxamide]
EC50 ([1]; Homo sapiens): 485 nM
EC50 [2]: 1.7 nM
EC50 (recombinant GSK3β kinase): 49 nM
EC50 [3, 9]: 199 nM
EC50 ([4]; Homo sapiens, 96 h): 769 nM
EC50 [8]: 169 nM
EC50 (IL-6 [5]; Homo sapiens, PBMC): 963 nM
EC50 (TNFα): 23 nM
EC50 (IL-6 [6]; Mus musculus): 80 nM

Cn1cc(-c2ccc3cnc(NC(=O)C4CCN(C5CC5)CC4)cc3c2)cn1 [Compound 76, 1-Cyclopropyl-N-(6-(1-methyl-1H-pyrazol-4-yl)isoquinolin-3-yl)piperidine-4-carboxamide]
EC50 ([1]; Homo sapiens): 705 nM
EC50 [2]: 2.3 nM
EC50 (recombinant GSK3β kinase): 31 nM
EC50 [3, 9]: 219 nM
IC50 [7]: 1200 nM
EC50 ([4]; Homo sapiens, 96 h): 1560 nM
EC50 [8]: 87 nM
EC50 (IL-6 [5]; Homo sapiens, PBMC): 1130 nM

Cn1cc(-c2ccc3cnc(NC(=O)C4CCN(CC(C)(C)C)CC4)cc3c2)cn1 [Compound 78, N-(6-(1-Methyl-1H-pyrazol-4-yl)isoquinolin-3-yl)-1-neopentylpiperidine-4-carboxamide]
EC50 ([1]; Homo sapiens): 1000 nM
EC50 [2]: 4.7 nM
EC50 (recombinant GSK3β kinase): 63 nM
EC50 [3, 9]: 265 nM
IC50 [7]: 889 nM
EC50 ([4]; Homo sapiens, 96 h): 1840 nM
EC50 [8]: 108 nM
EC50 (IL-6 [5]; Homo sapiens, PBMC): 2940 nM

Cn1cc(-c2ccc3cnc(NC(=O)C4CCN(CCC(F)(F)F)CC4)cc3c2)cn1 [Compound 82, N-(6-(1-Methyl-1H-pyrazol-4-yl)isoquinolin-3-yl)-1-(3,3,3-trifluoropropyl) piperidine-4-carboxamide]
EC50 ([1]; Homo sapiens): 4950 nM
EC50 [2]: 0.9 nM
EC50 (recombinant GSK3β kinase): 22 nM
EC50 [3, 9]: 315 nM
IC50 [7]: 5100 nM
EC50 ([4]; Homo sapiens, 96 h): 2710 nM
EC50 [8]: 156 nM
EC50 (IL-6 [5]; Homo sapiens, PBMC): 1190 nM

Cn1cc(-c2ccc3cnc(NC(=O)C4CCN(CC(C)(F)F)CC4)cc3c2)cn1 [Compound 83, 1-(2,2-Difluoropropyl)-N-(6-(1-methyl-1H-pyrazol-4-yl)isoquinolin-3-yl) piperidine-4-carboxamide]
EC50 ([1]; Homo sapiens): 2900 nM
EC50 [2]: 1.2 nM
EC50 (recombinant GSK3β kinase): 34 nM
EC50 [3, 9]: 432 nM
IC50 [7]: > 10000 nM
EC50 ([4]; Homo sapiens, 96 h): 6340 nM
EC50 [8]: 67 nM
EC50 (IL-6 [5]; Homo sapiens, PBMC): 2150 nM
EC50 (IL-6 [6]; Mus musculus): 6 nM

Cn1cc(-c2ccc3cnc(NC(=O)C4CCN(CC(F)F)CC4)cc3c2)cn1 [Compound 84, 1-(2,2-Difluoroethyl)-N-(6-(1-methyl-1H-pyrazol-4-yl)isoquinolin-3-yl) piperidine-4-carboxamide]
EC50 ([1]; Homo sapiens): 1900 nM
EC50 [2]: 1.3 nM
EC50 (recombinant GSK3β kinase): 20 nM
EC50 [3, 9]: 454 nM
IC50 [7]: 4400 nM
EC50 ([4]; Homo sapiens, 96 h): 1950 nM
EC50 [8]: 148 nM
EC50 (IL-6 [5]; Homo sapiens, PBMC): 2460 nM

Cn1cc(-c2ccc3cnc(NC(=O)C4CCN(CC(C)(C)F)CC4)cc3c2)cn1 [Compound 85, 1-(2-Fluoro-2-methylpropyl)-N-(6-(1-methyl-1H-pyrazol-4-yl)isoquinolin-3-yl)piperidine-4-carboxamide]
EC50 ([1]; Homo sapiens): 1200 nM
EC50 [2]: 1.4 nM
EC50 (recombinant GSK3β kinase): 29 nM
EC50 [3, 9]: 392 nM
IC50 [7]: 1300 nM
EC50 ([4]; Homo sapiens, 96 h): 1640 nM
EC50 [8]: 97 nM
EC50 (IL-6 [5]; Homo sapiens, PBMC): 1150 nM

Cn1cc(-c2ccc3cnc(NC(=O)CN4CCCCC4)cc3c2)cn1 [Compound 115, N-(6-(1-Methyl-1H-pyrazol-4-yl)isoquinolin-3-yl)-2-(piperidin-1-yl) acetamide]
EC50 ([1]; Homo sapiens): 2400 nM
EC50 [2]: 3.4 nM
EC50 (recombinant GSK3β kinase): 30 nM
EC50 [3, 9]: 311 nM
IC50 [7]: 956 nM
EC50 ([4]; Homo sapiens, 96 h): 3500 nM
EC50 [8]: 605 nM
EC50 (IL-6 [5]; Homo sapiens, PBMC): 1910 nM

Cn1nncc1-c1ccc2cnc(NC(=O)C3CCN(CCC(F)(F)F)CC3)cc2c1 [Compound 248, N-(6-(1-Methyl-1H-1,2,3-triazol-5-yl)isoquinolin-3-yl)-1-(3,3,3-trifluoropropyl)piperidine-4-carboxamide]
EC50 ([1]; Homo sapiens): > 10000 nM
EC50 [2]: 37.4 nM
EC50 (recombinant GSK3β kinase): 266 nM
EC50 [3, 9]: 905 nM
IC50 [7]: > 10000 nM
EC50 ([4]; Homo sapiens, 96 h): > 10000 nM
EC50 [8]: 7920 nM
EC50 (IL-6 [5]; Homo sapiens, PBMC): 9730 nM

Cn1cncc1-c1ccc2cnc(NC(=O)C3CCC(F)(F)CC3)cc2c1 [Compound 263, 4,4-Difluoro-N-(6-(1-methyl-1H-imidazol-5-yl)isoquinolin-3-yl) cyclohexanecarboxamide]
EC50 ([1]; Homo sapiens): 1300 nM
EC50 [2]: 1.3 nM
EC50 (recombinant GSK3β kinase): 18 nM
EC50 [3, 9]: 119 nM
IC50 [7]: 5300 nM
EC50 ([4]; Homo sapiens, 96 h): 1290 nM
EC50 [8]: 134 nM
EC50 (IL-6 [5]; Homo sapiens, PBMC): 451 nM

Cn1cncc1-c1ccc2cnc(NC(=O)C3C(C)(C)C3(C)C)cc2c1 [Compound 269, 2,2,3,3-Tetramethyl-N-[6-(3-methylimidazol-4-yl)-3-isoquinolyl]cyclopropanecarboxamide]
EC50 ([1]; Homo sapiens): 3620 nM
EC50 [2]: 5 nM
EC50 (recombinant GSK3β kinase): 1020 nM
EC50 ([3]; Homo sapiens, SH-SY5Y): 4300 nM
IC50 [7]: > 10000 nM
EC50 ([4]; Homo sapiens, 96 h): 2330 nM
EC50 [8]: 396 nM
EC50 (IL-6 [5]; Homo sapiens, PBMC): 3390 nM

Cn1cc(-c2ccc3cnc(NC(=O)C4CCN(CCC(F)(F)F)CC4)cc3c2)nn1 [Compound 271, N-(6-(1-methyl-1H-1,2,3-triazol-4-yl)isoquinolin-3-yl)-1-(3,3,3-trifluoropropyl)piperidine-4-carboxamide]
EC50 ([1]; Homo sapiens): 1720 nM
EC50 [2]: 2.1 nM
EC50 (recombinant GSK3β kinase): 3 nM
EC50 [3, 9]: 124 nM
IC50 [7]: 4600 nM
EC50 ([4]; Homo sapiens, 96 h): 2960 nM
EC50 [8]: 64 nM
EC50 (IL-6 [5]; Homo sapiens, PBMC): 3080 nM

Cn1cnnc1-c1ccc2cnc(NC(=O)C3CCN(CCC(F)(F)F)CC3)cc2c1 [Compound 278, N-(6-(4-Methyl-4H-1,2,4-triazol-3-yl)isoquinolin-3-yl)-1-(3,3,3-trifluoropropyl)piperidine-4-carboxamide]
EC50 ([1]; Homo sapiens): 413 nM
EC50 [2]: 3.2 nM
EC50 (recombinant GSK3β kinase): 7 nM
EC50 [3, 9]: 76 nM
EC50 ([4]; Homo sapiens, 96 h): 1230 nM
EC50 [8]: 211 nM
EC50 (IL-6 [5]; Homo sapiens, PBMC): 3990 nM
EC50 (TNFα): > 10000 nM
EC50 (IL-6 [6]; Mus musculus): 217 nM

CN1CC2(CC(C(=O)Nc3cc4cc(-c5cnn(C)c5)ccc4cn3)C2)C1 [Compound 324, 2-Methyl-N-(6-(1-methyl-1H-pyrazol-4-yl)isoquinolin-3-yl)-2-azaspiro[3.3] heptane-6-carboxamide]
EC50 ([1]; Homo sapiens): 145 nM
EC50 [2]: 2.1 nM
EC50 (recombinant GSK3β kinase): 30 nM
EC50 [3, 9]: 180 nM
EC50 ([4]; Homo sapiens, 96 h): 266 nM
EC50 [8]: 68 nM
EC50 (IL-6 [5]; Homo sapiens, PBMC): 321 nM
EC50 (TNFα): 33 nM
EC50 (IL-6 [6]; Mus musculus): 20 nM

Cn1cc(-c2ccc3cnc(NC(=O)CN4CCOCC4)cc3c2)cn1 [Compound 338, N-(6-(1-Methyl-1H-pyrazol-4-yl)isoquinolin-3-yl)-2-morpholinoacetamide]
EC50 ([1]; Homo sapiens): 7370 nM
EC50 [2]: 6.2 nM
EC50 (recombinant GSK3β kinase): 67 nM
EC50 [3, 9]: 1700 nM
EC50 ([4]; Homo sapiens, 96 h): 9330 nM
EC50 [8]: 643 nM
EC50 (IL-6 [5]; Homo sapiens, PBMC): 4460 nM
EC50 (TNFα): 724 nM
EC50 (IL-6 [6]; Mus musculus): 144 nM

CC(C)CN1CCC(C(=O)Nc2cc3cc(-c4cn(C)nn4)ccc3cn2)CC1 [Compound 468]
EC50 ([1]; Homo sapiens): 363 nM
EC50 [2]: 4.9 nM
EC50 (recombinant GSK3β kinase): 7 nM
EC50 [3, 9]: 39 nM
EC50 ([4]; Homo sapiens, 96 h): 2510 nM
EC50 (IL-6 [5]; Homo sapiens, PBMC): 5780 nM
EC50 (TNFα): 2100 nM
EC50 (IL-6 [6]; Mus musculus): 23 nM
